Assay results as given in patent US11679107B2 (Eisai R&D Management Co., Ltd., priority 2018, dated 2023).
Where two headings read alike, the source gives them in different places.

How the values were obtained:
SF3b complexes = target: T1, SF3b complexes (Homo sapiens, UniProt O75533+Q7RTV0); assay: Scintillation proximity assay (SPA) with [3H]-labelled pladienolide probe; format: binding; conditions: SF3B1 (WT); geometric mean; read-out: SPA-ATS GMean IC50 (nM) SF3B1 (WT)
T1 construct: endogenous in cells; host or cells: Nuclear extracts; A HeLa S3 extract preparation is described for the in vitro splicing assay
Summary of the method: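 SF3b complexes captured from nuclear extracts on anti-SF3B1 antibody SPA beads; test compounds pre-incubated 30 min before 2.5 nM [3H]-pladienolide probe added, then 30 min incubation. Bound probe read by scintillation; values from non-linear regression of concentration–response curves.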

[1] = system: Ad2 variant pre-mRNAs spliced in HeLa S3 nuclear extracts; assay: In vitro splicing assay (IVS), RT-qPCR of spliced product; format: biochemical; conditions: for IC50: geometric mean; for Ratio Ad2.1/2.2: ratio of IVS IC50 Ad2.1 to Ad2.2
Summary of the method: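 Ad2 variant pre-mRNA (2 ng) with FTZΔi control RNA in HeLa S3 nuclear extract (8 μg) was pre-incubated with compound or DMSO for 15 min at 30 °C. Splicing ran 90 min at 30 °C after adding 0.5 mM ATP, creatine phosphate and MgCl2. Spliced product was quantified by TaqMan RT-qPCR, normalized to DMSO, and curve-fitted.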

[2] = system: NCI-H1568 cells (high MCL1); assay: Cell proliferation and viability, CellTiter-Glo, 72 hours; format: cell-based; conditions: for GI50: geometric mean
Summary of the method: (§1)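 Cells grown in RPMI-1640 with 10% FBS (Panc line with added insulin and FBS to 15%) were exposed to an 11-point half-log dilution series, typically 10 μM-100 pM, at 0.1% final DMSO. After incubation at 37° C, 5% CO2, ATP content was measured by luminescence and normalized to a time-zero plate and DMSO wells.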

[3] = system: Panc 05.04 cells (SF3b K700E mutant); assay: as above; format: cell-based; conditions: for GI50: geometric mean
Summary of the method: as §1

[4] = Ad2.1 pre-mRNA substrate, read-out: qPCR-IVS-ATS GMean IC50 (nM) Ad2.1
[5] = Ad2.2 pre-mRNA substrate, read-out: qPCR-IVS-ATS GMean IC50 (nM) Ad2.2
[6] = NCI-H1568, read-out: CTGlo-ATS GMean GI50 (nM) 72 h NCIH1568.1, NCIH1568.1 cells, 72 h
[7] = NCIH1568.1 cells, 72 h, −100% cidal, 0% static, 100% maximal growth
[8] = PANC0504.1 cells, 72 h, −100% cidal, 0% static, 100% maximal growth
[9] = Panc 05.04, read-out: CTGlo-ATS GMean GI50 (nM) 72 h PANC0504.1, PANC0504.1 cells, 72 h
[10] = 72 h, NCIH1568.1, -100% = cidal, 0% = static, 100% = uninhibited growth
[11] = NCI-H1568, 72 h, read-out: CTGlo-ATS GMean GI50 (nM) 72 h NCIH1568.1, 72 h, NCIH1568.1
[12] = 72 h, PANC0504.1, -100% = cidal, 0% = static, 100% = uninhibited growth
[13] = Panc 05.04, 72 h, read-out: CTGlo-ATS GMean GI50 (nM) 72 h PANC0504.1, 72 h, PANC0504.1

Structure (SMILES) | IC50 (SF3b complexes) [nM] | IC50 [1, 4] [nM] | IC50 [1, 5] [nM] | GI50 [2, 6] [nM] | CTGlo-ATS Mean MinResponse % 72 h NCIH1568.1 [2, 7] [%] | CTGlo-ATS Mean MinResponse % 72 h PANC0504.1 [3, 8] [%] | GI50 [3, 9] [nM] | Ratio Ad2.1/2.2 [1] | CTGlo-ATS Mean MinResponse % 72 h NCIH1568.1 [2, 10] [%] | GI50 [2, 11] [nM] | CTGlo-ATS Mean MinResponse % 72 h PANC0504.1 [3, 12] [%] | GI50 [3, 13] [nM] | GI50 ([2]; NCI-H1568, 72 h, read-out: CTGlo-ATS GMean GI50 (nM) 72 h NCIH1568.1, NCIH1568.1 cells, 72 h) [nM] | GI50 ([3]; Panc 05.04, 72 h, read-out: CTGlo-ATS GMean GI50 (nM) 72 h PANC0504.1, PANC0504.1 cells, 72 h) [nM]
C/C(=C\c1cnn(C2CCN(C)CC2)c1)[C@H]1OC(=O)C[C@H](O)CC[C@H](C)[C@@H](OC(=O)N2CCN(C)CC2)/C=C/[C@@H]1C [Compound 106] | 146 | 21300 | 556 | 9020 | 49.516 | 25.144 | 1950 |  |  |  |  |  |  | 
C/C(=C\c1cccc(S(=O)(=O)N2CCNCC2)c1)[C@H]1OC(=O)C[C@H](O)CC[C@H](C)[C@@H](OC(=O)N2CCN(C)CC2)/C=C/[C@@H]1C [Compound 93] | 24.7 | 219 | 41.6 | 73.8 | −57.108 | −97.726 | 109 |  |  |  |  |  |  | 
C/C(=C\c1cccc(N(C)C2CCOCC2)c1)[C@H]1OC(=O)C[C@H](O)CC[C@H](C)[C@@H](OC(=O)N2CCN(C)CC2)/C=C/[C@@H]1C [Compound 170] | 4.93 | 11000 | 31 | 25.9 | −56.895 | −96.570 | 23.2 |  |  |  |  |  |  | 
C/C(=C\c1cc(F)cc(N2CCC3(COC3)C2)c1)[C@H]1OC(=O)C[C@H](O)CC[C@H](C)[C@@H](OC(=O)N2CCN(C)CC2)/C=C/[C@@H]1C [Compound 33] | 5.58 | 28.4 | 27.6 | 12 | −73.122 | −77.334 | 10 |  |  |  |  |  |  | 
C/C(=C\c1cc(F)cc(N2CCOCC2)c1)[C@H]1OC(=O)C[C@H](O)CC[C@H](C)[C@@H](OC(=O)NCCCN2CCOCC2)/C=C/[C@@H]1C [Compound 241, [(2S,3S,4E,6R,7S,10R)-2-[(E)-1-(3-fluoro-5-morpholin-4-ylphenyl)prop-1-en-2-yl]-10-hydroxy-3,7-dimethyl-12-oxo-1-oxacyclododec-4-en-6-yl] N-(3-morpholin-4-ylpropyl)carbamate] | 20.5 | > 25000 | 130 |  |  |  |  | 191.917 | −59.521 | 225 | −88.873 | 120 |  | 
C/C(=C\c1cc(C)cc(N2CCOCC2)c1)[C@H]1OC(=O)C[C@H](O)CC[C@H](C)[C@@H](OC(=O)N2CCN(C)CC2)/C=C/[C@@H]1C [Compound 18] | 16.7 | 77.5 | 34.3 | 26.1 | −60.339 | −83.683 | 19.9 |  |  |  |  |  |  | 
C/C(=C\c1cccc(S(=O)(=O)N2CCCC2)c1)[C@H]1OC(=O)C[C@H](O)CC[C@H](C)[C@@H](OC(=O)N2CCN(C)CC2)/C=C/[C@@H]1C [Compound 214, [(2S,3S,4E,6R,7S,10R)-10-hydroxy-3,7-dimethyl-12-oxo-2-[(E)-1-(3-pyrrolidin-1-ylsulfonylphenyl)prop-1-en-2-yl]-1-oxacyclododec-4-en-6-yl] 4-methylpiperazine-1-carboxylate] | 2.3 | 3920 | 19.2 |  |  |  |  | 204.217 | −48.793 | 6.37 | −91.986 | 3.29 |  | 
C/C(=C\c1cc(F)cc(N2CCOCC2)c1)[C@H]1OC(=O)C[C@H](O)CC[C@H](C)[C@@H](OC(=O)N(C)C2CCCN(C)C2)/C=C/[C@@H]1C (stereo partly shown) [Compound 37] | 2.27 | 85.8 | 20.2 | 4.75 | −82.247 | −86.134 | 4.61 |  |  |  |  |  |  | 
C/C(=C\c1cc(F)cc(N2CCN(CCO)CC2)c1)[C@H]1OC(=O)C[C@H](O)CC[C@H](C)[C@@H](OC(=O)N2CCN(C)CC2)/C=C/[C@@H]1C [Compound 12] | 4.88 | 14.7 | 13.5 | 3.64 | −92.161 | −73.954 | 7.55 |  |  |  |  |  |  | 
C/C(=C\c1cc(F)cc(N2CCOCC2)c1)[C@H]1OC(=O)C[C@H](O)CC[C@H](C)[C@@H](OC(=O)N2CCN(CC(F)(F)F)CC2)/C=C/[C@@H]1C [Compound 92, [(2S,3S,4E,6R,7S,10R)-2-[(E)-1-(3-fluoro-5-morpholin-4-ylphenyl)prop-1-en-2-yl]-10-hydroxy-3,7-dimethyl-12-oxo-1-oxacyclododec-4-en-6-yl] 4-(2,2,2-trifluoroethyl)piperazine-1-carboxylate] | 80 | > 25000 | 664 | 401 | −3.918 | −37.359 | 433 |  |  |  |  |  |  | 
C/C(=C\c1cc(F)cc(N2CCOC[C@@H]2CO)c1)[C@H]1OC(=O)C[C@H](O)CC[C@H](C)[C@@H](OC(=O)N2CCN(C)CC2)/C=C/[C@@H]1C [Compound 77] | 1.78 | 16.1 | 13.3 | 1.79 | −82.189 | −86.524 | 3.9 |  |  |  |  |  |  | 
C/C(=C\c1cc(F)c2cnn(CC3CC3)c2c1)[C@H]1OC(=O)C[C@H](O)CC[C@H](C)[C@@H](OC(=O)N2CCN(C)CC2)/C=C/[C@@H]1C [Compound 87, [(2S,3S,4E,6R,7S,10R)-2-[(E)-1-[1-(cyclopropylmethyl)-4-fluoroindazol-6-yl]prop-1-en-2-yl]-10-hydroxy-3,7-dimethyl-12-oxo-1-oxacyclododec-4-en-6-yl] 4-methylpiperazine-1-carboxylate] | 4.98 | 62.7 | 27 | 3.68 | −85.463 | −79.550 | 4.19 |  |  |  |  |  |  | 
CN[C@@H]1CCN(c2cc(F)cc(/C=C(\C)[C@H]3OC(=O)C[C@H](O)CC[C@H](C)[C@@H](OC(=O)N4CCN(C)CC4)/C=C/[C@@H]3C)c2)C1 [Compound 45] | 15.9 | 36.3 | 18.3 | 18.9 | −98.435 | −92.006 | 35.7 |  |  |  |  |  |  | 
C/C(=C\c1ccc2ccnc(O)c2c1)[C@H]1OC(=O)C[C@H](O)CC[C@H](C)[C@@H](OC(=O)N2CCN(C)CC2)/C=C/[C@@H]1C [Compound 127] | 19.1 | > 25000 | 452 |  | −18.734 | 11.995 |  |  |  |  |  |  | 835 | 1070
C/C(=C\c1cc(F)cc(N2CCOCC2)c1)[C@H]1OC(=O)C[C@H](O)CC[C@H](C)[C@@H](OC(=O)N2CCN(C3CCCC3)CC2)/C=C/[C@@H]1C [Compound 27] | 10.5 | 39.9 | 42.3 | 12.3 | −71.773 | −84.822 | 11.9 |  |  |  |  |  |  | 
C/C(=C\c1cc(F)cc(N2CCOCC2)c1)[C@H]1OC(=O)C[C@@H](O)CC[C@@](C)(O)[C@@H](OC(=O)N2CCC(N3CCCCC3)CC2)/C=C/[C@@H]1C [Compound 63] | 12.3 | 18800 | 52 | 39.3 | −50.769 | −96.440 | 41.2 |  |  |  |  |  |  | 
C/C(=C\c1ccc2cn[nH]c2c1)[C@H]1OC(=O)C[C@H](O)CC[C@H](C)[C@@H](OC(=O)N2CCN(C)CC2)/C=C/[C@@H]1C [Compound 4] | 3.8 | > 25000 | 58.7 | 15.5 | −46.416 | −27.423 | 26.9 |  |  |  |  |  |  | 
